Laboratory results taken from ChEMBL document CHEMBL3864133, “Discovery of a Potent and Selective in Vivo Probe (GNE-272) for the Bromodomains of CBP/EP300” (J Med Chem, 2016).
Activity calls are given as the source filed them. No cut-off for these calls is given here.

Tests used:
[1] = Decrease in MYC mRNA expression in tumor of SCID beige mouse xenografted with human MOLM16 cells at 30 mg/kg, po administered twice daily via gavage as single dose measured after 2 hrs by RT-PCR analysis relative to control; format: functional, organism-based
[2] = molecular target: Cytochrome P450 2C9 (Homo sapiens, UniProt P11712); assay: Inhibition of CYP2C9 in human liver microsomes assessed as formation of 7-hydroxywarfarin from warfarin measured after 30 mins in presence of NADPH by LC-MS/MS analysis; format: ADME; conditions: 0.5 h
[3] = tested on: KMS34; assay: Antiproliferative activity against human KMS34 cells measured after 6 days by CellTiter-Glo assay; format: functional, cell-based
[4] = tested on: LP-1; assay: Antiproliferative activity against human LP-1 cells measured after 6 days by CellTiter-Glo assay; format: functional, cell-based
[5] = tested on: Mus musculus; assay: Inhibition of MYC mRNA expression in SCID beige mouse xenografted with human MOLM16 cells assessed as MYC transcript level at 3 to 100 mg/kg, po administered twice daily via gavage as single dose measured after 24 hrs by RT-PCR analysis relative to control; format: functional; design: scale not given: the % may be the effect or the level left
[6] = molecular target: Cytochrome P450 2C19 (Homo sapiens, UniProt P33261); assay: Inhibition of CYP2C19 in human liver microsomes assessed as formation of 4-hydroxymephenytoin from mephenytoin measured after 40 mins in presence of NADPH by LC-MS/MS analysis; format: ADME
[7] = Protein binding in nu/nu mouse plasma at 5 uM measured after 4 hrs by LC-MS/MS analysis; format: ADME, cell-free; conditions: read-out: PPB (converted)
[8] = tested on: Pfeiffer; assay: Antiproliferative activity against human Pfeiffer cells measured after 6 days by CellTiter-Glo assay; format: functional, cell-based
[9] = molecular target: T1, CREB-binding protein/Histone acetyltransferase p300 (Homo sapiens, UniProt Q09472+Q92793); assay: Inhibition of CBP/EP300 in human Pfeiffer cells assessed as decrease in MYC expression at 5 uM measured after 4 hrs by RT-PCR analysis relative to DMSO control; format: cell-based
T1 sequence (Q09472 whole entry, looked up): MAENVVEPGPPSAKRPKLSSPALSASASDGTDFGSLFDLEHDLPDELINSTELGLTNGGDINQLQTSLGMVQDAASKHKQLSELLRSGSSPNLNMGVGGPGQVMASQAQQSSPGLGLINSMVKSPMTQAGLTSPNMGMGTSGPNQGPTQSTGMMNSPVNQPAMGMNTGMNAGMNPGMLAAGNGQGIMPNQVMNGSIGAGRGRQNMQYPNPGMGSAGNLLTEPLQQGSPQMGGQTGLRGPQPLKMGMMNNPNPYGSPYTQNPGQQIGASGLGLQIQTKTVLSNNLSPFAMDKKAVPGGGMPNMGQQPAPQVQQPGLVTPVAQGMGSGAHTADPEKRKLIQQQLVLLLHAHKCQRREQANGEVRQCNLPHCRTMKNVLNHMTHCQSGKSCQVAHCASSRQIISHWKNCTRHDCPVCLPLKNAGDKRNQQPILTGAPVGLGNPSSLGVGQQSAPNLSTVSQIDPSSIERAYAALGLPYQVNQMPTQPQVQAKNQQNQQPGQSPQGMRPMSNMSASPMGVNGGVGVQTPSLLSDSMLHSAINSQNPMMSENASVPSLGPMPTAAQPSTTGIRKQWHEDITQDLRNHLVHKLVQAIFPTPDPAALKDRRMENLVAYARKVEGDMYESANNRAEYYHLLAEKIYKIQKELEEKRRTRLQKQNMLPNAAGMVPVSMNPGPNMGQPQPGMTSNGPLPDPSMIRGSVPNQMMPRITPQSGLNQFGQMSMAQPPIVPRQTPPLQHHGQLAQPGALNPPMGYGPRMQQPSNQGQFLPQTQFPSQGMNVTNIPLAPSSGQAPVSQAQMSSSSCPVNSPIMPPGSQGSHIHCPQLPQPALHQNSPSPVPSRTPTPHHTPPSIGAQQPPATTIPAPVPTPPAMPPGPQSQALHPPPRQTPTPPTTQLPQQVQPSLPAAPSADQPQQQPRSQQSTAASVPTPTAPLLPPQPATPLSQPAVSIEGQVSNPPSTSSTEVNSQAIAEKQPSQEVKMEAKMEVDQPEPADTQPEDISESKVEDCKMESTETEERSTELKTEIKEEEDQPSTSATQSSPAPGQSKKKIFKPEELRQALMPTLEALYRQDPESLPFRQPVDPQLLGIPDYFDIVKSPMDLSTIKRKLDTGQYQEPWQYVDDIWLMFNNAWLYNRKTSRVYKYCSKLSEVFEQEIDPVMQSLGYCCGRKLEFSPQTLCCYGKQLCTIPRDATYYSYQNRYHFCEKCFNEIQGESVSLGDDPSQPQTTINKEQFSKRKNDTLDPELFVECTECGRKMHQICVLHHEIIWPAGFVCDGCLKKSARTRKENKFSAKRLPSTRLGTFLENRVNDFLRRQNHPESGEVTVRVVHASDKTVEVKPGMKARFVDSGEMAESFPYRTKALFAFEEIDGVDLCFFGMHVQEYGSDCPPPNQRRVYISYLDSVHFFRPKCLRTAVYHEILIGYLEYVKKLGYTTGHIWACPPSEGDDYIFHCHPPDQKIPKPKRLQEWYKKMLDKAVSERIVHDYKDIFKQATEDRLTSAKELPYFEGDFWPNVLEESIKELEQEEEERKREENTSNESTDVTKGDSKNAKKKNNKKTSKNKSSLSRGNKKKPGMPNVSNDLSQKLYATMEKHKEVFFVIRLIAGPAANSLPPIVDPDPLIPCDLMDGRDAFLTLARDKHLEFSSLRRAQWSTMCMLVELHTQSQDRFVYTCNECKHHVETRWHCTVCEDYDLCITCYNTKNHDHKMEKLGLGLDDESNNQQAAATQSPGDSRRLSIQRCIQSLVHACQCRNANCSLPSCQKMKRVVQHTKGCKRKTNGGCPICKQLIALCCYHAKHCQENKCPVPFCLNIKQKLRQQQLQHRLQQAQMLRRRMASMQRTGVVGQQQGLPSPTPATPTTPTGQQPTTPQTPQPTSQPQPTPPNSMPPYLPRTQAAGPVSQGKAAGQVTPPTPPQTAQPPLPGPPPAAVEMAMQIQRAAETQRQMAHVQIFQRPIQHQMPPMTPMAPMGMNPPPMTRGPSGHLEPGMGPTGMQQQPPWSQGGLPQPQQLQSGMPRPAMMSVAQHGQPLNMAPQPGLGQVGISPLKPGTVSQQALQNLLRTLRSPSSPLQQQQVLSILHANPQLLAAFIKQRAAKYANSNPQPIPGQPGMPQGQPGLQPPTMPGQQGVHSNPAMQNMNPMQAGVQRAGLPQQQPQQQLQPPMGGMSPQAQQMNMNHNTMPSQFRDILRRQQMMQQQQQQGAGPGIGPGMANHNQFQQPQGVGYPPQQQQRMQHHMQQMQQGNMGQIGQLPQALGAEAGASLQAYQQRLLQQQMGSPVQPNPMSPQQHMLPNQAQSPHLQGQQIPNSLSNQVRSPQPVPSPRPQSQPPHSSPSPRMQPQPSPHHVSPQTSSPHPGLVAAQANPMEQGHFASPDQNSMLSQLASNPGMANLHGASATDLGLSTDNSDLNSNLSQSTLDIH
T1 sequence (Q92793 whole entry, looked up): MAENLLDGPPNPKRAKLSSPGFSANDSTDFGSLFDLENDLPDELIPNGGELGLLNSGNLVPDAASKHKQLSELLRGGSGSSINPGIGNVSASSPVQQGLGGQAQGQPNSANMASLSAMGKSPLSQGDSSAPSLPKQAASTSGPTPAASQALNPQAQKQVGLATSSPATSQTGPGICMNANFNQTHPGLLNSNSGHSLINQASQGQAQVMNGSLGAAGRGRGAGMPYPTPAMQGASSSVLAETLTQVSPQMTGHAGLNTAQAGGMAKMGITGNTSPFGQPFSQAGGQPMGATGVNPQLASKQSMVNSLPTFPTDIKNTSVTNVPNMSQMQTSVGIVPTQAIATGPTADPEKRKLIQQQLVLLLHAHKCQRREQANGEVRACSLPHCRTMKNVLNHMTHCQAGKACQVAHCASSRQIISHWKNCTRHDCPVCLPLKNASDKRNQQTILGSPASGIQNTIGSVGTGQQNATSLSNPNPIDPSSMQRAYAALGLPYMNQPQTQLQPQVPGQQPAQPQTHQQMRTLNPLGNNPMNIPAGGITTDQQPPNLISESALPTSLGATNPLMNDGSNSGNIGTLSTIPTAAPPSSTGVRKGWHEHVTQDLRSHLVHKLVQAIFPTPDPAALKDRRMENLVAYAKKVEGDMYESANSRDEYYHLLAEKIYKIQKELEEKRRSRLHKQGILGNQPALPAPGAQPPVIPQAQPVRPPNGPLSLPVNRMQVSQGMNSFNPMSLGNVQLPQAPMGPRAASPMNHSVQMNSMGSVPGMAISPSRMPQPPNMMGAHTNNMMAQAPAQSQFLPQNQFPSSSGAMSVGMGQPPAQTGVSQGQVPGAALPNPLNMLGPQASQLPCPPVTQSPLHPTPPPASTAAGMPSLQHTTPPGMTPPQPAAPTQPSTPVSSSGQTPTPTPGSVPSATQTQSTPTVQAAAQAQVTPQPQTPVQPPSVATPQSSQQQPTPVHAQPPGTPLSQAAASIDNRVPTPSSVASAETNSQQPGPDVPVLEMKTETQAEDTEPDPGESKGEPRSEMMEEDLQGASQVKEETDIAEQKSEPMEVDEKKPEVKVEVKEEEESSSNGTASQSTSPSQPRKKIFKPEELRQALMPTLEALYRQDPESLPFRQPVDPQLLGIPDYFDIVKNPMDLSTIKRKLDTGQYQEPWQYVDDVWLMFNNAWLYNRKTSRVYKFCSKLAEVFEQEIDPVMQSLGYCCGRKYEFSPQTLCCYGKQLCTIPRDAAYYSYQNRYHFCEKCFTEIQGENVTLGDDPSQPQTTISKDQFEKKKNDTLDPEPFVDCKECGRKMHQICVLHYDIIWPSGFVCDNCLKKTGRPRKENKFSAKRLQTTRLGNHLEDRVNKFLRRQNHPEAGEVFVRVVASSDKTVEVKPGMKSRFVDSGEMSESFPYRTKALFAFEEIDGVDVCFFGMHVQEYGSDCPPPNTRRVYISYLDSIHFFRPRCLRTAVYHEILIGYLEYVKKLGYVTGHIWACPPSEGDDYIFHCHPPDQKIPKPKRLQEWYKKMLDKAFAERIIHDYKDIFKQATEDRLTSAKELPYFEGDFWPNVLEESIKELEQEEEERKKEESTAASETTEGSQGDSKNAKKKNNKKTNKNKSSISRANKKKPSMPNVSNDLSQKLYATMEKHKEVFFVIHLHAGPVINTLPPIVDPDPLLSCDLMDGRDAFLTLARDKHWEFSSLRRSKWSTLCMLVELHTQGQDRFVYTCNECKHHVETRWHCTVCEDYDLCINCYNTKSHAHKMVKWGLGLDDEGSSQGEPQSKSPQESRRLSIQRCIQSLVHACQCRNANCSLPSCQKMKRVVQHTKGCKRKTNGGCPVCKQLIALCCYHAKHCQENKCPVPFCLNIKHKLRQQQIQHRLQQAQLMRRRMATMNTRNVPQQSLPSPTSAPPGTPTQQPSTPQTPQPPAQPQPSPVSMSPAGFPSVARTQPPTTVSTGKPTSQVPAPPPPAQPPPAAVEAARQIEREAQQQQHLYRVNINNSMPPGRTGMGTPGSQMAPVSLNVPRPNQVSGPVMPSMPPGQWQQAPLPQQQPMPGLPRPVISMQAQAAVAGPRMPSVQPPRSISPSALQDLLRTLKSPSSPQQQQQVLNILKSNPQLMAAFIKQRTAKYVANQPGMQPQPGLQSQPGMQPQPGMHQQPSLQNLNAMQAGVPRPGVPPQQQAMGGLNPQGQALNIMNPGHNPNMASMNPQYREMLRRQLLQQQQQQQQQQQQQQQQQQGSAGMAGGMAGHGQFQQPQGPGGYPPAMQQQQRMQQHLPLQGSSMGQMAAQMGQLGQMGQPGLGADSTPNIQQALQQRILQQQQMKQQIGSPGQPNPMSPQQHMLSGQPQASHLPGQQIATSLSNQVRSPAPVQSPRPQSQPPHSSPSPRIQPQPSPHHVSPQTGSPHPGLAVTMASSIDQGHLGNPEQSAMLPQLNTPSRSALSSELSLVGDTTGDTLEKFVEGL

[10] = molecular target: Cytochrome P450 2D6 (Homo sapiens, UniProt P10635); assay: Inhibition of CYP2D6 in human liver microsomes assessed as formation of dextrophan from dextromethorphan measured after 10 mins in presence of NADPH by LC-MS/MS analysis; format: ADME
[11] = tested on: U-266; assay: Antiproliferative activity against human U266B1 cells measured after 6 days by CellTiter-Glo assay; format: functional, cell-based
[12] = molecular target: Cytochrome P450 3A4 (Homo sapiens, UniProt P08684); assay: Inhibition of CYP3A4 in human liver microsomes assessed as formation of 1-hydroxymidazolam from midazolam measured after 10 mins in presence of NADPH by LC-MS/MS analysis; format: ADME
[13] = tested on: KMS26; assay: Antiproliferative activity against human KMS26 cells measured after 6 days by CellTiter-Glo assay; format: functional, cell-based
[14] = tested on: Jurkat; assay: Antiproliferative activity against human Jurkat cells measured after 6 days by CellTiter-Glo assay; format: functional, cell-based
[15] = tested on: Kasumi 1; assay: Antiproliferative activity against human Kasumi-1 cells measured after 6 days by CellTiter-Glo assay; format: functional, cell-based
[16] = Antitumor activity against human MOLM16 cells xenografted in SCID beige mouse assessed as tumor growth inhibition at 25 mg/kg, po BID administered through gavage for 21 days; format: functional; conditions: read-out: TGI
[17] = molecular target: T1, CREB-binding protein/Histone acetyltransferase p300; assay: Inhibition of CBP/EP300 in human MOLM16 cells assessed as suppression of BCL6 expression at 5 uM measured after 4 hrs by RT-PCR analysis relative to DMSO control; format: cell-based
[18] = Decrease in MYC mRNA expression in tumor of SCID beige mouse xenografted with human MOLM16 cells at 10 mg/kg, po administered twice daily via gavage as single dose measured after 2 to 8 hrs by RT-PCR analysis; format: functional, organism-based
[19] = molecular target: T1, CREB-binding protein/Histone acetyltransferase p300; assay: Inhibition of CBP/EP300 in human MOLM16 cells assessed as suppression of MCL1 expression at 5 uM measured after 4 hrs by RT-PCR analysis relative to DMSO control; format: cell-based
[20] = Volume of distribution at steady state in nu/nu mouse at 1 mg/kg, iv or 100 mg/kg, po by LC-MS/MS analysis; format: ADME, organism-based; conditions: in vivo, read-out: Vdss
[21] = tested on: MOLM16; assay: Antiproliferative activity against human MOLM16 cells measured after 6 days by CellTiter-Glo assay; format: functional, cell-based
[22] = molecular target: T1, CREB-binding protein/Histone acetyltransferase p300; assay: Inhibition of CBP/EP300 in human KMS34 cells assessed as decrease in MYC expression at 5 uM measured after 4 hrs by RT-PCR analysis relative to DMSO control; format: cell-based
[23] = molecular target: T1, CREB-binding protein/Histone acetyltransferase p300; assay: Inhibition of CBP/EP300 in human MOLM16 cells assessed as decrease in MYC expression measured after 4 hrs by RT-PCR analysis; format: cell-based
[24] = tested on: DOHH-2; assay: Antiproliferative activity against human DOHH2 cells measured after 6 days by CellTiter-Glo assay; format: functional, cell-based
[25] = tested on: HL-60; assay: Antiproliferative activity against human HL60 cells measured after 6 days by CellTiter-Glo assay; format: functional, cell-based
[26] = tested on: MOLM16; assay: Antitumor activity against human MOLM16 cells xenografted in SCID beige mouse assessed as tumor growth inhibition compound administered through oral gavage twice daily for 21 days; format: functional, cell-based
[27] = Cmax in nu/nu mouse at 100 mg/kg, po by LC-MS/MS analysis; format: ADME, organism-based; design: dose 100 mg/kg, route oral; conditions: in vivo
[28] = molecular target: T1, CREB-binding protein/Histone acetyltransferase p300; assay: Inhibition of CBP/EP300 in human MOLM16 cells assessed as suppression of BCL-XL expression at 5 uM measured after 4 hrs by RT-PCR analysis relative to DMSO control; format: cell-based
[29] = Antitumor activity against human MOLM16 cells xenografted in SCID beige mouse assessed as tumor growth inhibition at 50 mg/kg, po BID administered through gavage for 21 days; format: functional; conditions: read-out: TGI
[30] = molecular target: Cytochrome P450 1A2 (Homo sapiens, UniProt P05177); assay: Inhibition of CYP1A2 in human liver microsomes assessed as formation of acetaminophen from phenacetin measured after 30 mins in presence of NADPH by LC-MS/MS analysis; format: ADME; conditions: 0.5 h
[31] = Oral bioavailability in nu/nu mouse at 100 mg/kg by LC-MS/MS analysis; format: ADME, organism-based; conditions: in vivo
[32] = Antitumor activity against human MOLM16 cells xenografted in SCID beige mouse assessed as tumor growth inhibition at 12.5 mg/kg, po BID administered through gavage for 21 days; format: functional; conditions: read-out: TGI
[33] = Decrease in MYC mRNA expression in tumor of SCID beige mouse xenografted with human MOLM16 cells at 100 mg/kg, po administered twice daily via gavage as single dose measured after 2 hrs by RT-PCR analysis relative to control; format: functional, organism-based
[34] = molecular target: T1, CREB-binding protein/Histone acetyltransferase p300; assay: Inhibition of CBP/EP300 in human LP-1 cells assessed as decrease in MYC expression at 5 uM measured after 4 hrs by RT-PCR analysis relative to DMSO control; format: cell-based
[35] = fCmax in nu/nu mouse at 100 mg/kg, po by LC-MS/MS analysis; format: ADME, organism-based; conditions: in vivo
[36] = Half life in nu/nu mouse at 1 mg/kg, iv or 100 mg/kg, po by LC-MS/MS analysis; format: ADME, organism-based; conditions: in vivo
[37] = Clearance in nu/nu mouse at 1 mg/kg, iv by LC-MS/MS analysis; format: ADME, organism-based; conditions: in vivo

INH [2]: > 10 µM | INH [6]: > 10 µM | fraction unbound at 4 h, 5 µM [7]: 0.16 | inhibition [9]: Active | INH [10]: > 10 µM | INH [12]: > 10 µM | inhibition [17]: Active | inhibition [19]: Active | Vd [20]: 1.5 L/kg | inhibition [22]: Active | EC90 [23]: 621 nM | Cmax [27]: 163 µM | inhibition [28]: Active | INH [30]: > 10 µM | bioavailability [31]: 100% | inhibition [34]: Active | fCmax [35]: 26 µM | half-life [36]: 2 h | clearance [37]: 9.6 mL/min/kg
Compound: CC(=O)N1CCc2c(c(Nc3ccc(-c4cnn(C)c4)cc3F)nn2[C@@H]2CCOC2)C1
inhibition [1]: 78% | Activity [3]: Active | Activity [4]: Active | Activity [5]: 150 - 200% | Activity [8]: Active | Activity [11]: Active | Activity [13]: Active | Activity [14]: Active | Activity [15]: Active | inhibition in vivo at 25 mg/kg [16]: 65% | inhibition [18]: Active | Activity [21]: Active | Activity [24]: Active | Activity [25]: Active | TGI [26]: Dose-dependent effect | inhibition in vivo at 50 mg/kg [29]: 102% | inhibition in vivo at 12.5 mg/kg [32]: 46% | inhibition [33]: 86%
